Laboratory results reported in patent publication US8030443B2, “Squamous cell carcinoma antigen-derived peptide binding to HLA-A24 molecule” (Kurume University, priority 2005, dated 2011).

Test system: peptide-specific IgG in sera of cancer patients and healthy donors
Assay: Measurement of anti-peptide IgG in plasma by LUMINEX multiplexed flow cytometric assay
Format: binding, human
Summary of the method: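 Plasma diluted 1/100 incubated with peptide-coupled colour-coded beads 2 h at RT, then biotinylated goat anti-human IgG (γ-chain) 1 h and streptavidin-PE 30 min; fluorescence read by multiplexed flow cytometry, >100 counted significant. Specificity checked by three rounds of absorption on corresponding versus irrelevant SCCA peptide.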

RFKVEESYDL (SCCA 286-295 peptide) [SCCA-derived peptide, position 286-295]
Total: healthy donors with significant peptide-reactive IgG / donors tested (10 healthy donors, significant when fluorescence intensity exceeded 100 at 1/100 dilution): 4/10
Total: cancer patients with significant peptide-reactive IgG / patients tested (71 cancer patients, significant when fluorescence intensity exceeded 100 at 1/100 dilution): 19/71
Specificity of IgG reactive to the peptide (absorption assay: corresponding vs irrelevant SCCA peptide-coated wells (FIG. 3)): confirmed by absorption assay
Fluorescence intesity (serum of Breast Ca. patient #36, 1:100 dilution): 292
Fluorescence intesity (serum of Breast Ca. patient #37, 1:100 dilution): 54
Fluorescence intesity (serum of Breast Ca. patient #38, 1:100 dilution): 95
Fluorescence intesity (serum of Breast Ca. patient #39, 1:100 dilution): 117
Fluorescence intesity (serum of Breast Ca. patient #40, 1:100 dilution): 32
Fluorescence intesity (serum of Breast Ca. patient #41, 1:100 dilution): 321
Fluorescence intesity (serum of Breast Ca. patient #42, 1:100 dilution): 47
Fluorescence intesity (serum of Breast Ca. patient #43, 1:100 dilution): 58
Fluorescence intesity (serum of Breast Ca. patient #44, 1:100 dilution): 155
Fluorescence intesity (serum of Breast Ca. patient #45, 1:100 dilution): 80
Fluorescence intesity (serum of Colon Ca. patient #66, 1:100 dilution): 4
Fluorescence intesity (serum of Colon Ca. patient #67, 1:100 dilution): 35
Fluorescence intesity (serum of Colon Ca. patient #68, 1:100 dilution): 0
Fluorescence intesity (serum of Colon Ca. patient #69, 1:100 dilution): 8
Fluorescence intesity (serum of Colon Ca. patient #70, 1:100 dilution): 16
Fluorescence intesity (serum of Colon Ca. patient #71, 1:100 dilution): 45
Fluorescence intesity (serum of Gastric Ca. patient #56, 1:100 dilution): 243
Fluorescence intesity (serum of Gastric Ca. patient #57, 1:100 dilution): 9
Fluorescence intesity (serum of Gastric Ca. patient #58, 1:100 dilution): 27
Fluorescence intesity (serum of Gastric Ca. patient #59, 1:100 dilution): 258
Fluorescence intesity (serum of Gastric Ca. patient #60, 1:100 dilution): 79
Fluorescence intesity (serum of Gastric Ca. patient #61, 1:100 dilution): 286
Fluorescence intesity (serum of Gastric Ca. patient #62, 1:100 dilution): 0
Fluorescence intesity (serum of Gastric Ca. patient #63, 1:100 dilution): 7
Fluorescence intesity (serum of Gastric Ca. patient #64, 1:100 dilution): 40
Fluorescence intesity (serum of Gastric Ca. patient #65, 1:100 dilution): 37
Fluorescence intesity (serum of Healthy Donor #1, 1:100 dilution): 21
Fluorescence intesity (serum of Healthy Donor #2, 1:100 dilution): 219
Fluorescence intesity (serum of Healthy Donor #3, 1:100 dilution): 9
Fluorescence intesity (serum of Healthy Donor #4, 1:100 dilution): 0
Fluorescence intesity (serum of Healthy Donor #5, 1:100 dilution): 239
Fluorescence intesity (serum of Healthy Donor #6, 1:100 dilution): 2
Fluorescence intesity (serum of Healthy Donor #7, 1:100 dilution): 0
Fluorescence intesity (serum of Healthy Donor #8, 1:100 dilution): 516
Fluorescence intesity (serum of Healthy Donor #9, 1:100 dilution): 100
Fluorescence intesity (serum of Healthy Donor #10, 1:100 dilution): 138
Fluorescence intesity (serum of Pancreas Ca. patient #46, 1:100 dilution): 0
Fluorescence intesity (serum of Pancreas Ca. patient #47, 1:100 dilution): 37
Fluorescence intesity (serum of Pancreas Ca. patient #48, 1:100 dilution): 946
Fluorescence intesity (serum of Pancreas Ca. patient #49, 1:100 dilution): 97
Fluorescence intesity (serum of Pancreas Ca. patient #50, 1:100 dilution): 0
Fluorescence intesity (serum of Pancreas Ca. patient #51, 1:100 dilution): 0
Fluorescence intesity (serum of Pancreas Ca. patient #52, 1:100 dilution): 275
Fluorescence intesity (serum of Pancreas Ca. patient #53, 1:100 dilution): 41
Fluorescence intesity (serum of Pancreas Ca. patient #54, 1:100 dilution): 48
Fluorescence intesity (serum of Pancreas Ca. patient #55, 1:100 dilution): 24
Fluorescence intesity (serum of Uterine cervical Ca. patient #1, 1:100 dilution): 75
Fluorescence intesity (serum of Uterine cervical Ca. patient #2, 1:100 dilution): 0
Fluorescence intesity (serum of Uterine cervical Ca. patient #3, 1:100 dilution): 21
Fluorescence intesity (serum of Uterine cervical Ca. patient #4, 1:100 dilution): 229
Fluorescence intesity (serum of Uterine cervical Ca. patient #5, 1:100 dilution): 58
Fluorescence intesity (serum of Uterine cervical Ca. patient #6, 1:100 dilution): 869
Fluorescence intesity (serum of Uterine cervical Ca. patient #7, 1:100 dilution): 15
Fluorescence intesity (serum of Uterine cervical Ca. patient #8, 1:100 dilution): 30
Fluorescence intesity (serum of Uterine cervical Ca. patient #9, 1:100 dilution): 93
Fluorescence intesity (serum of Uterine cervical Ca. patient #10, 1:100 dilution): 14
Fluorescence intesity (serum of Uterine cervical Ca. patient #11, 1:100 dilution): 23
Fluorescence intesity (serum of Uterine cervical Ca. patient #12, 1:100 dilution): 44
Fluorescence intesity (serum of Uterine cervical Ca. patient #13, 1:100 dilution): 29
Fluorescence intesity (serum of Uterine cervical Ca. patient #14, 1:100 dilution): 19
Fluorescence intesity (serum of Uterine cervical Ca. patient #15, 1:100 dilution): 129
Fluorescence intesity (serum of Uterine cervical Ca. patient #16, 1:100 dilution): 147
Fluorescence intesity (serum of Uterine cervical Ca. patient #17, 1:100 dilution): 63
Fluorescence intesity (serum of Uterine cervical Ca. patient #18, 1:100 dilution): 48
Fluorescence intesity (serum of Uterine cervical Ca. patient #19, 1:100 dilution): 62
Fluorescence intesity (serum of Uterine cervical Ca. patient #20, 1:100 dilution): 102
Fluorescence intesity (serum of Uterine cervical Ca. patient #21, 1:100 dilution): 21
Fluorescence intesity (serum of Uterine cervical Ca. patient #22, 1:100 dilution): 25
Fluorescence intesity (serum of Uterine cervical Ca. patient #23, 1:100 dilution): 60
Fluorescence intesity (serum of Uterine cervical Ca. patient #24, 1:100 dilution): 1779
Fluorescence intesity (serum of Uterine cervical Ca. patient #25, 1:100 dilution): 18
Fluorescence intesity (serum of Uterine cervical Ca. patient #26, 1:100 dilution): 97
Fluorescence intesity (serum of Uterine cervical Ca. patient #27, 1:100 dilution): 29
Fluorescence intesity (serum of Uterine cervical Ca. patient #28, 1:100 dilution): 139
Fluorescence intesity (serum of Uterine cervical Ca. patient #29, 1:100 dilution): 16
Fluorescence intesity (serum of Uterine cervical Ca. patient #30, 1:100 dilution): 34
Fluorescence intesity (serum of Uterine cervical Ca. patient #31, 1:100 dilution): 104
Fluorescence intesity (serum of Uterine cervical Ca. patient #32, 1:100 dilution): 19
Fluorescence intesity (serum of Uterine cervical Ca. patient #33, 1:100 dilution): 118
Fluorescence intesity (serum of Uterine cervical Ca. patient #34, 1:100 dilution): 16
Fluorescence intesity (serum of Uterine cervical Ca. patient #35, 1:100 dilution): 21
